Measurements taken from USRE39591E1, “6-O-substituted ketolides having antibacterial activity” (Abbott Laboratories, priority 1996, dated 2007).
Values after ≈ are worked out from the molar mass of the structure shown.

Tested on: up to 32 different microorganisms
Assay: in vitro antibacterial activity (MIC), agar dilution on Brain Heart Infusion (BHI) agar with Steers replicator
Format: cell-based
Conditions: unit assumed
Method: Representative compounds of the present invention were assayed in vitro for antibacterial activity as follows: Twelve petri dishes containing successive aqueous dilutions of the test compound mixed with 10 mL of sterilized Brain Heart Infusion (BHI) agar (Difco 0148-01-5) were prepared. Each plate was inoculated with 1:100 (or 1:10 for slow-growing strains, such as Micrococcus and Streptococcus) dilutions of up to 32 different microorganisms, using a Steers replicator block. The inoculated plates were incubated at 35°-37° C. for 20 to 24 hours. In addition, a control plate, using BHI agar containing no test compound, was prepared and incubated at the beginning and end of each test.
An additional plate containing a compound having known susceptibility patterns for the organisms being tested and belonging to the same antibiotic class as the test compound was also prepared and incubated as a further control, as well as to provide test-to-test comparability. Erythromycin A was used for this purpose.
After incubation, each plate was visually inspected. The minimum inhibitory concentration (MIC) was defined as the lowest concentration of drug yielding no growth, a slight haze, or sparsely isolated colonies on the inoculum spot as compared to the growth control.

Row | SMILES | MIC (organism code AA) [mg/L] | MIC (organism code BB) [mg/L] | MIC (organism code CC) [mg/L] | MIC (organism code DD) [mg/L] | MIC (organism code EE) [mg/L] | MIC (organism code FF) [mg/L] | MIC (organism code GG) [mg/L] | MIC (organism code HH) [mg/L] | MIC (organism code II) [mg/L] | MIC (organism code JJ) [mg/L] | MIC (organism code KK) [mg/L] | MIC (organism code LL) [mg/L] | MIC (organism code MM) [mg/L] | MIC (organism code NN) [mg/L] | MIC (organism code OO) [mg/L] | MIC (organism code PP) [mg/L] | MIC (organism code QQ) [mg/L] | MIC (organism code RR) [mg/L] | MIC (organism code SS) [mg/L] | MIC (organism code TT) [mg/L] | further results
1 | CCC1OC(=O)C(C)C(=O)C(C)C(OC2OC(C)CC(N(C)C)C2O)C(C)(OCC=Cc2ccc3cc(O)c(C(=O)Nc4ccccc4OC)cc3c2)CC(C)C(=O)C(C)C2NC(=O)OC12C (stereo not drawn) [Example 206, R is —CH2CH═CH-(3-hydroxy-2-(N-(2-methoxyphenyl)amido)-7-napthyl)] | 0.78 (≈ 0.839 µM) | 0.39 (≈ 0.419 µM) | > 100 | 0.78 (≈ 0.839 µM) | 0.78 (≈ 0.839 µM) | 0.78 (≈ 0.839 µM) | > 100 | 0.78 (≈ 0.839 µM) | 0.39 (≈ 0.419 µM) | 0.1 (≈ 0.108 µM) | 0.39 (≈ 0.419 µM) | 0.39 (≈ 0.419 µM) | > 100 | 1.56 (≈ 1.68 µM) | 0.2 (≈ 0.215 µM) | 1.56 (≈ 1.68 µM) | > 100 | 25 (≈ 26.9 µM) | > 100 | > 100 | MIC (organism code UU): 3.1 mg/L (≈ 3.33 µM); MIC (organism code VV): 3.1 mg/L (≈ 3.33 µM); MIC (organism code WW): > 128 mg/L; MIC (organism code XX): 0.5 mg/L (≈ 0.538 µM); MIC (organism code YY): 0.5 mg/L (≈ 0.538 µM); MIC (organism code ZZ): > 128 mg/L; MIC (organism code ZZA): 4 mg/L (≈ 4.3 µM)
2 | CCC1OC(=O)C(C)C(=O)C(C)C(OC2OC(C)CC(N(C)C)C2O)C(C)(OCC(O)c2ccccc2)CC(C)C(=O)C(C)C2NC(=O)OC12C (single isomer, unassigned) [Example 261A] | 6.2 (≈ 8.62 µM) | 6.2 (≈ 8.62 µM) | > 100 | 12.5 (≈ 17.4 µM) | 12.5 (≈ 17.4 µM) | 12.5 (≈ 17.4 µM) | > 100 | 6.2 (≈ 8.62 µM) | 1.56 (≈ 2.17 µM) | 0.39 (≈ 0.543 µM) | 0.39 (≈ 0.543 µM) | 0.39 (≈ 0.543 µM) | > 100 | 1.56 (≈ 2.17 µM) | 0.78 (≈ 1.09 µM) | 3.1 (≈ 4.31 µM) | > 100 | 6.2 (≈ 8.62 µM) | > 100 | > 100 | MIC (organism code UU): 25 mg/L (≈ 34.8 µM); MIC (organism code VV): 6.2 mg/L (≈ 8.62 µM); MIC (organism code WW): 64 mg/L (≈ 89 µM); MIC (organism code XX): 1 mg/L (≈ 1.39 µM); MIC (organism code YY): 1 mg/L (≈ 1.39 µM); MIC (organism code ZZ): > 128 mg/L; MIC (organism code ZZA): 2 mg/L (≈ 2.78 µM)
